This is an account of results in patent US20240246992A1, “MACROCYCLIC LRRK2 KINASE INHIBITORS” (LES LABORATOIRES SERVIER, priority 2021, published 2024).

Counter-ions that a name gives are not always drawn.

human recombinant LRRK2 protein, sequence (Q5S007 whole entry): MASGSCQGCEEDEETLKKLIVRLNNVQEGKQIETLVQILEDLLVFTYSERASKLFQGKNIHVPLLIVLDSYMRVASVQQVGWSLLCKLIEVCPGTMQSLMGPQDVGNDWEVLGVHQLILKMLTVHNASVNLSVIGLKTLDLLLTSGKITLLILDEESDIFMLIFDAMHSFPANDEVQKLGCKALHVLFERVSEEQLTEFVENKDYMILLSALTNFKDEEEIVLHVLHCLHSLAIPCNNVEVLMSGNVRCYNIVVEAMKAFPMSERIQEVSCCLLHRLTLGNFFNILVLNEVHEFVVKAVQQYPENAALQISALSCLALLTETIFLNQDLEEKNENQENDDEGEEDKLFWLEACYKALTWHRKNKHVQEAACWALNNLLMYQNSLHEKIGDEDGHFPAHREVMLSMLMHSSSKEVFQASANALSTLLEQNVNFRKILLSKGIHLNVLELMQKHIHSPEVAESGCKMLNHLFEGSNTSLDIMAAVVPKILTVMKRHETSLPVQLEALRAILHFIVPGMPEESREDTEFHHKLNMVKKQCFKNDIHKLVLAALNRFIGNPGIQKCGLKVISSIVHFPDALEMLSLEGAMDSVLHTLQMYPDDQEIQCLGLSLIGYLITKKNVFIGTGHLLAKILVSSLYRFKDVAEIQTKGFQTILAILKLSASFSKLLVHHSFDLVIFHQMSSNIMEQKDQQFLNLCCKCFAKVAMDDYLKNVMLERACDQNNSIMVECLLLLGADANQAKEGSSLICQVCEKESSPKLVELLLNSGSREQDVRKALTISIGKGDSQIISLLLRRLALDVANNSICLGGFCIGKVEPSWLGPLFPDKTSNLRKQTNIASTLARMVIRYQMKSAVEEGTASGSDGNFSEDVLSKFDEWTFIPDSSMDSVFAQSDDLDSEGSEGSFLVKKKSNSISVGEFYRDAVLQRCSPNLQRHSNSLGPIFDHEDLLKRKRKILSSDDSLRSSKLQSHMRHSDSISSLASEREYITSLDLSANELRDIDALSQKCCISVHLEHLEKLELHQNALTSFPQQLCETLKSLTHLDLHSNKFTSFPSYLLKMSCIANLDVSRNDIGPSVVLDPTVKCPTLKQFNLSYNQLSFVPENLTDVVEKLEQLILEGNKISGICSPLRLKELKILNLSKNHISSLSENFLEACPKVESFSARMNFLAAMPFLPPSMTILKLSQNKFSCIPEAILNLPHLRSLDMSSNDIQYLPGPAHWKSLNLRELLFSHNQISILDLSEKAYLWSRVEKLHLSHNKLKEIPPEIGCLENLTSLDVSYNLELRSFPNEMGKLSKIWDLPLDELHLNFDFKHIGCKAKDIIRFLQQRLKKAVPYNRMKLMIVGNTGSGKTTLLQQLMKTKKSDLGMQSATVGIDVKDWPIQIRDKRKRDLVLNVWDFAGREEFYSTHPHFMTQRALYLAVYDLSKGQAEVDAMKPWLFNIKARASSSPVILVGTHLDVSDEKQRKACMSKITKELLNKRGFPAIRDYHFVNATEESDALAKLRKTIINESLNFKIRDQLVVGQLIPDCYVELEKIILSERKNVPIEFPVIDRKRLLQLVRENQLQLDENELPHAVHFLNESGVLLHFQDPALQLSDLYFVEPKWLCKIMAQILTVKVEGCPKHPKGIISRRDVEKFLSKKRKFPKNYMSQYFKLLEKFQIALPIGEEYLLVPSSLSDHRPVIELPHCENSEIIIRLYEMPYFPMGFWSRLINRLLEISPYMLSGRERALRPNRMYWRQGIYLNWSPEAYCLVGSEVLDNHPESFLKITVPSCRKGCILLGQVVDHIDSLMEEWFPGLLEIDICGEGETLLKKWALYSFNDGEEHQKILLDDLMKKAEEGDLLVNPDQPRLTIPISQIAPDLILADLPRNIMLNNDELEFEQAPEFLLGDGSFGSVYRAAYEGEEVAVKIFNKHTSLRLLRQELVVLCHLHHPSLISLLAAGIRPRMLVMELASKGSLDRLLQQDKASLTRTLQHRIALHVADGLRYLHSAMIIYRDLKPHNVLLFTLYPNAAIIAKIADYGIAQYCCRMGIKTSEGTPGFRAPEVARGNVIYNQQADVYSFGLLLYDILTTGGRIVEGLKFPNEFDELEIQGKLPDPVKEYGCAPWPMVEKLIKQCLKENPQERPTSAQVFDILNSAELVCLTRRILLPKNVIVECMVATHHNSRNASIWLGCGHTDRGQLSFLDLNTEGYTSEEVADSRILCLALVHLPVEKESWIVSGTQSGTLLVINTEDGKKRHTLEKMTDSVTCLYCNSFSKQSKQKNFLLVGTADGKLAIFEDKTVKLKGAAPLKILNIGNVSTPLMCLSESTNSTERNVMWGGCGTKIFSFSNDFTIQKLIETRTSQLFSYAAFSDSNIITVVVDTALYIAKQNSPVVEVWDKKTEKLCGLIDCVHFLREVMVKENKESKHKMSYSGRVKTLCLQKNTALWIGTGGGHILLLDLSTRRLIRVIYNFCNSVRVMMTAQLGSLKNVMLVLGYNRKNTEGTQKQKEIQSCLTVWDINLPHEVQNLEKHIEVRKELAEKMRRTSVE

The experiment deals with human recombinant LRRK2 protein (Homo sapiens, UniProt Q5S007). Briefly: LRRK2 kinase activity assay (ADP-Glo, LRRKtide peptide). The format is biochemical. The following applies: human recombinant LRRK2 wt, LRRKtide peptide and ATP, 1 h at 37° C. A digest of the protocol:
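ADP-Glo luminescence read-out of a peptide assay: compound, ATP and LRRKtide substrate combined with recombinant human LRRK2 and incubated at 37 °C for 1 h. Ten-point data, N=2, curve-fitted to IC50.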
Turning to `c1cc2[nH]nc3c2cc1OCCOCCCOc1cc-3cc(N2CCOCC2)c1` [Example 3, 4-(morpholin-4-yl)-7,11,14-trioxa-19,20-diazatetracyclo[13.5.2.1^2,6.0^18,21] tricosa-1(20),2(23),3,5,15(22),16,18(21)-heptaene], the IC50 was less than 10 nM.

As for `C[C@@H]1COc2ccc3[nH]nc(c3c2)-c2cnn(c2)CCOCCO1` [Example 67, (12R)-12-methyl-8,11,14-trioxa-4,5,19,20-tetraazatetracyclo[13.5.2.1^2,5.0^18,21]tricosa-1(20),2(23),3,15(22),16,18(21)-hexaene], the IC50 was less than 10 nM.

Take `C[C@H]1COc2ccc3[nH]nc(c3c2)-c2cnn(c2)CCOCCO1` [Example 54, (12S)-12-methyl-8,11,14-trioxa-4,5,19,20-tetraazatetracyclo[13.5.2.1^2,5.0^18,21]tricosa-1(20),2(23),3,15(22),16,18(21)-hexaene]: the IC50 was less than 10 nM.

Take `C[C@@H]1CCOCC(F)(F)COc2ccc3[nH]nc(c3c2)-c2cnn1c2` [Example 109, (6R)-11,11-difluoro-6-methyl-9,13-dioxa-4,5,18,19-tetraazatetracyclo [12.5.2.1^2,5.0^17,20]docosa-1(19),2(22),3,14(21),15,17(20)-hexaene]: the IC50 was less than 100 nM.

As to `c1ncc2cc1OCCCNCCOc1ccc3[nH]nc-2c3c1` [Example 238, 7,14-dioxa-4,11,19,20-tetraazatetracyclo[13.5.2.1^2,6.0^18,21]tricosa-1(20),2,4,6(23),15,17,21-heptaene], the IC50 is less than 10 nM.

Consider `C[C@@H]1COc2ccc3[nH]nc(c3c2)-c2cccc(c2)OCCN[C@@H]1C` [Example 228, (11R,12S)-11,12-dimethyl-7,14-dioxa-10,19,20-triazatetracyclo[13.5.2.1^2,6.0^18,21]tricosa-1(20),2,4,6(23),15(22),16,18(21)-heptaene], for which the IC50 is less than 10 nM.

In the case of `C[C@@H]1COCCO[C@H](C)c2cncc(c2)-c2n[nH]c3ccc(cc23)O1` [Example 13, (7R,13R)-7,13-dimethyl-8,11,14-trioxa-4,19,20-triazatetracyclo[13.5.2.1^2,6. 0^18,21]tricosa-1(20),2(23),3,5,15(22),16,18(21)-heptaene hydrochloride], the IC50 is less than 100 nM.

Regarding `CN1CCCOc2ccc3[nH]nc(c3c2)-c2cncc(c2)OCCC1=O` [Example 198, 11-methyl-7,15-dioxa-4,11,20,21-tetraazatetracyclo [14.5.2.1^2,6.0^19,22] tetracosa-1(21),2,4,6(24),16,18,22-heptaen-10-one], the IC50 is less than 1000 nM.

On to `C[C@@H]1CCN(C)CC[C@H](C)n2ncc(n2)-c2n[nH]c3ccc(cc23)O1` [Example 244, (6S,12R)-6,9,12-trimethyl-13-oxa-4,5,9,18,19,22-hexaazatetracyclo[12.5.2.1^2,5.0^17,20]docosa-1(19),2(22),3,14(21),15,17(20)-hexaene], for which the IC50 is less than 100 nM.

With `C[C@@H]1CCOC[C@H](C)Oc2ccc3[nH]nc(c3c2)-c2cncc(c2)O1` [Example 18, (8R,13S)-8,13-dimethyl-7,11,14-trioxa-4,19,20-triazatetracyclo[13.5.2.1^2,6. 0^18,21]tricosa-1(20),2(23),3,5,15(22),16,18(21)-heptaene], the IC50 was less than 10 nM.

Consider `O=C1COc2cc(cc(N3CCCC3)c2)-c2n[nH]c3ccc(cc23)OCCCN1` [Example 205, 4-(pyrrolidin-1-yl)-7,14-dioxa-10,19,20-triazatetracyclo [13.5.2.1^2,6.0^18,21]tricosa-1(20),2(23),3,5,15,17,21-heptaen-9-one], for which the IC50 is less than 10 nM.

In the case of `C[C@@H]1CCCOC[C@@H](C)n2cc(cn2)-c2n[nH]c3ccc(cc23)O1` [Example 128, (6R,12R)-6,12-dimethyl-8,13-dioxa-4,5,18,19-tetraazatetracyclo[12.5.2.1^2,5.0^17,20]docosa-1(19),2(22),3,14(21),15,17(20)-hexaene], the IC50 was less than 10 nM.

Consider `C[C@@H]1COCC[C@H](C)Oc2ccc3[nH]nc(c3c2)-c2cccc(n2)O1` [Example 33, (8R,13S)-8,13-dimethyl-7,10,14-trioxa-19,20,23-triazatetracyclo[13.5.2.1^2,6.0^18,21]tricosa-1(20),2(23),3,5,15(22),16,18(21)-heptaene], for which the IC50 was less than 100 nM.

Turning to `C[C@@H]1CCNC(=O)COc2cc(cc(N3CCOCC3)c2)-c2n[nH]c3ccc(cc23)O1` [Example 172, (13R)-13-methyl-4-(morpholin-4-yl)-7,14-dioxa-10,19,20-triazatetracyclo[13.5.2.1^2,6.0^18,21]tricosa-1(20),2(23),3,5,15,17,21-heptaen-9-one], the IC50 is less than 10 nM.

On to `C[C@@H]1CNCC[C@H](C)Oc2ccc3[nH]nc(c3c2)-c2cncc(c2)O1` (single isomer, unassigned) [Example 229, (8R or 8S,13S)-8,13-dimethyl-7,14-dioxa-4,10,19,20-tetraazatetracyclo[13.5.2.1^2,6.0^18,21]tricosa-1(20),2,4,6(23),15(22),16,18(21)-heptaene], for which the IC50 was less than 10 nM.

Turning to `C[C@H]1COCCOCCn2ccc(n2)-c2n[nH]c3ccc(cc23)O1` [Example 80, (13S)-13-methyl-8,11,14-trioxa-5,19,20,23-tetraazatetracyclo [13.5.2.1^2,5.0^18,21]tricosa-1(20),2(23),3,15(22),16,18(21)-hexaene], the IC50 was less than 1000 nM.

In the case of `c1cc2cc(c1)-c1n[nH]c3ccc(cc13)OCCCNCCO2` [Example 135, 7,14-dioxa-10,19,20-triazatetracyclo[13.5.2.1^2,6.0^18,21]tricosa-1(20),2(23),3,5,15(22),16,18(21)-heptaene], the concentration for half-maximal inhibition (IC50) is less than 10 nM.

On to `C[C@@H]1COCCCOc2nccc(n2)-c2n[nH]c3ccc(cc23)O1` [Example 7, (13R)-13-methyl-7,11,14-trioxa-5,19,20,23-tetraazatetracyclo[13.5.2.1^2,6.0^18,21]tricosa-1(20),2(23),3,5,15(22),16,18(21)-heptaene], for which the IC50 is less than 10 nM.

`C[C@H]1OCCOCCn2cc(cn2)-c2n[nH]c3ccc(cc23)O[C@@H]1C` [Example 113, (12R,13R)-12,13-dimethyl-8,11,14-trioxa-4,5,19,20-tetraazatetracyclo [13.5.2.1^2,5.0^18,21]tricosa-1(20),2(23),3,15(22),16,18(21)-hexaene]: the IC50 is less than 10 nM.

On to `C[C@@H]1COCCOCCOc2ccc3[nH]nc(c3c2)-c2cnn1c2` [Example 65, (6R)-6-methyl-8,11,14-trioxa-4,5,19,20-tetraazatetracyclo[13.5.2.1^2,5.0^18,21] tricosa-1(20),2(23),3,15(22),16,18(21)-hexaene], for which the IC50 is less than 10 nM.

Consider `C[C@@H]1OCCOCCn2cc(cn2)-c2n[nH]c3ccc(cc23)O[C@@H]1C` [Example 99, (12S,13R)-12,13-dimethyl-8,11,14-trioxa-4,5,19,20-tetraazatetracyclo[13.5.2.1^2,5.0^18,21]tricosa-1(20),2(23),3,15(22),16,18(21)-hexaene], for which the IC50 was less than 10 nM.

Consider `C[C@H]1COc2ccc3[nH]nc(c3c2)-c2cnn(c2)CCCCCO1` [Example 112, (12S)-12-methyl-11,14-dioxa-4,5,19,20-tetraazatetracyclo[13.5.2.1^2,5.0^18,21] tricosa-1(20),2(23),3,15(22),16,18(21)-hexaene], for which the IC50 was less than 10 nM.

Regarding `COC1CN(c2cc3nc(n2)O[C@H](C)COCC[C@H](C)Oc2ccc4[nH]nc-3c4c2)C1` [Example 44, (8R,13S)-4-(3-methoxyazetidin-1-yl)-8,13-dimethyl-7,10,14-trioxa-5,19,20, 23-tetraazatetracyclo[13.5.2.1^2,6.0^18,21]tricosa-1(20),2(23),3,5,15(22),16, 18(21)-heptaene], the IC50 was less than 10 nM.

As for `c1ncc2cc1CCOCCOCCOc1ccc3[nH]nc-2c3c1` [Example 68, 9,12,15-trioxa-4,20,21-triazatetracyclo[14.5.2.1^2,6.0^19,22]tetracosa-1(21), 2(24),3,5,16(23),17,19(22)-heptaene], the IC50 is less than 100 nM.

For the compound `C[C@H]1COCCOCCc2cncc(c2)-c2n[nH]c3ccc(cc23)O1` [Example 69, (14S)-14-methyl-9,12,15-trioxa-4,20,21-triazatetracyclo[14.5.2.1^2,6.0^19,22] tetracosa-1(21),2(24),3,5,16(23),17,19(22)-heptaene], the IC50 was less than 100 nM.

As to `c1nn2cc1-c1n[nH]c3ccc(nc13)OCCOCCOCC2` [Example 73, 8,11,14-trioxa-4,5,19,20,22-pentaazatetracyclo[13.5.2.1^2,5.0^18,21]tricosa-1(20),2(23),3,15(22), 16,18(21)-hexaene], the IC50 was less than 100 nM.

As for `C[C@H]1CCOC[C@H](C)Oc2ccc3[nH]nc(c3c2)-c2cncc(c2)O1` [Example 12, (8S,13S)-8,13-dimethyl-7,11,14-trioxa-4,19,20-triazatetracyclo[13.5.2.1^2,6.0^18,21]tricosa-1(20),2(23),3,5,15(22),16,18(21)-heptaene], the IC50 is less than 100 nM.

With `C[C@H]1COCCOC[C@H](C)n2cc(cn2)-c2n[nH]c3ccc(cc23)O1` [Example 101, (6S,13S)-6,13-dimethyl-8,11,14-trioxa-4,5,19,20-tetraazatetracyclo[13.5.2.1^2,5.0^18,21]tricosa-1(20),2(23),3,15(22),16,18(21)-hexaene], the IC50 is less than 10 nM.

Take `C[C@@H]1COCCCCn2ncc(n2)-c2n[nH]c3ccc(cc23)O1` [Example 130, (12R)-12-methyl-10,13-dioxa-4,5,18,19,22-pentaazatetracyclo[12.5.2.1^2,5.0^17,20] docosa-1(19),2(22),3,14(21),15,17(20)-hexaene]: the IC50 is less than 100 nM.

On to `C[C@H]1CCNC[C@H](C)Oc2cncc(c2)-c2n[nH]c3ccc(cc23)O1` (single isomer, unassigned) [Example 230, (8S or 8R,13S)-8,13-dimethyl-7,14-dioxa-4,10,19,20-tetraazatetracyclo[13.5.2.1^2,6.0^18,21]tricosa-1(20),2,4,6(23),15(22),16,18(21)-heptaene], for which the IC50 was less than 100 nM.
